Earlier results on one molecule are cited in US7713550B2, “Controlled release sodium valproate formulation” (Andrx Corporation, priority 2004, dated 2010).

The conditions of the series: for valproic acid.

For the molecule `CCCC(CCC)C(=O)O` [divalproex sodium], the solubility (as a rule, how much of the substance goes into solution per volume) was 1270 µg/mL.
